Source: patent publication US7989466B2, “Methods to inhibit or augment an inflammatory response” (Cambridge Enterprise Limited, priority 1999, dated 2011)
Like-named read-outs stand apart in the source and are kept apart here. Positions of bridges follow the written chain, without caps; N, C: chain ends. Non-standard residues stand in square brackets, D forms with d. Residues, ends and D or L forms follow the SMILES beside them.

Legend:
[1] = Mouse LD50 (modified LD50 technique); assay type: in vivo; settings: for LD50: IV
[2] = test system: T cell-dependent antibody response; test: Antibody response in mice immunized with sheep red blood cells; assay type: in vivo, mouse; settings: T cell-independent response not prevented
[3] = test system: RANTES induced THP-1 migration; test: THP-1 trans-well migration assay, RANTES as chemoattractant; assay type: cell-based, human; settings: Homo sapiens, THP-1; read-out: ED50, RANTES chemotaxis assay
Procedure: To determine whether an agent inhibits a chemokine-induced activity, such as macrophage recruitment, varying amounts of the agent are mixed with cells in the presence of a known chemoattractant. For example, a range of known concentrations of an agent, e.g., a chemokine peptide, is incubated with a defined number (e.g., 10^4-10^6) of human THP-1 monocyte cells in individual wells of the top compartment of a trans-well plate. Chemokine (such as MCP-1, MIP1α, IL8 or SDF-1α), at a concentration known to cause significant migration of THP-1 cells in the trans-well migration assay, is placed in the lower compartment (FIG. 1). […] A standard curve consisting of a two-fold dilution series of THP-1 cells (in 29 μl) is prepared to accurately quantify the number of cells that have migrated. […] Absorbance of converted dye is measured at a wavelength of 595 nm using an ELISA plate reader. The number of migrated cells in each well is then determined by interpolation of the standard curve (see also Imai et al., J. Biol. Chem., 272, 15036 (1997)). […]
After incubation, the cells were gently removed from the top of the filter with a pipette, 20 μl of 20 mM EDTA in PBS was added into each top well, and the mixture was incubated for 20 minutes at 4° C. […] A standard curve was prepared to accurately quantify the number of THP-1 cells that had migrated. […]

| Structure (SMILES) | lethality after intraperitoneal administration ([1]; 11 mg i.p.) | LD50 [1] | LD50 ([1]; in vivo, read-out: LD50) | T cell-dependent antibody response [2] | EC50 [3] |
| --- | --- | --- | --- | --- | --- |
| CC[C@@H](C)[C@H]1NC(=O)[C@@H](CCC(N)=O)NC(=O)[C@H](N)CSSC[C@H](C(N)=O)NC(=O)[C@@H](CC(C)C)NC(=O)[C@@H](CC(=O)O)NC(=O)[C@H]2CCCN2C(=O)[C@@H](CCCCN)NC(=O)[C@@H](CCC(N)=O)NC(=O)[C@@H](CCCCN)NC(=O)[C@@H](Cc2c[nH]c3ccccc23)NC1=O (H-[dC][dQ][dI][dW][dK][dQ][dK][dP][dD][dL][dC]-NH2; disulfide 1-11; N-terminus assumed) | did not result in lethality | 11.4 mg/mouse | 569 mg/kg | prevented | – |
| C=CCCCCCCCCC(=O)N[C@H]1CCC(=O)NC1=O [A-I (NR58.4), [3S]-3-(undec-10-enoylamino)piperidine-2,6-dione] | – | – | – | – | 0.3 nM |
